In ChEMBL document CHEMBL1151594, “Aromatic guanyl hydrazones: Synthesis, structural studies and in vitro activity against Trypanosoma cruzi” (1995) one finds IC50 and Total lysis data, which are given here for 23 molecules.

Common to all, as to format: functional
In one assay the test system is Trypanosoma cruzi. In words: In vitro inhibitory activity against trypomastigote form of Trypanosoma Cruzi. The settings on record: read-out: ID50 (the source's name).
The species named for assay [1] is Mus musculus. Nature of the assay: Effect on lysis of erythrocytes after 24 hr at 4 degree centigrade; Value given as 150-200.
The species entered for assay [2] is Mus musculus. In words: Effect on lysis of erythrocytes after 24 hr at 4 degree centigrade; Value given as 500-600.
For assay [3], the species on record is Mus musculus. In words: Effect on lysis of erythrocytes after 24 hr at 4 degree Centigrade.
Assay [4] is filed under the species Mus musculus. In words: Effect on lysis of erythrocytes after 24 hr at 4 degree centigrade; Value given as 400-500.
Assay [5] is filed under the species Mus musculus. In words: Effect on lysis of erythrocytes after 24 hr at 4 degree centigrade; Value given as 75-100.
For assay [6], the species on record is Mus musculus. In words: Effect on lysis of erythrocytes after 24 hr at 4 degree centigrade; Value given as 100-150.
For assay [7], the species on record is Mus musculus. In words: Effect on lysis of erythrocytes after 24 hr at 4 degree centigrade; Value given as 50-75.
The species named for assay [8] is Mus musculus. Nature of the assay: Effect on lysis of erythrocytes after 24 hr at 4 degree centigrade; Value given as 250-300.
For assay [9], the species on record is Mus musculus. Nature of the assay: Effect on lysis of erythrocytes after 24 hr at 4 degree centigrade; Value given as 1200-1400.
For assay [10], the species on record is Mus musculus. In words: Effect on lysis of erythrocytes after 24 hr at 4 degree centigrade; Value given as 700-1000.
For assay [11], the species on record is Mus musculus. Nature of the assay: Effect on lysis of erythrocytes after 24 hr at 4 degree centigrade; Value given as 40-50.
Assay [12] is filed under the species Mus musculus. Nature of the assay: Effect on lysis of erythrocytes after 24 hr at 4 degree centigrade; Value given as 500-700.
For assay [13], the species on record is Mus musculus. Nature of the assay: Effect on lysis of erythrocytes after 24 hr at 4 degree centigrade; Value given as 300-400.

Turning to `Cl.N=C(N)N/N=C/c1ccc([N+](=O)[O-])cc1`, the IC50 with Trypanosoma cruzi turned out to be 55.9 µM. For the same molecule, in the assay listed under Mus musculus [1], the Total lysis was determined as 150 µM. In the assay filed under Mus musculus [2], `CN(C)c1ccc(/C=N/NC(=N)N)cc1.Cl` showed a Total lysis of 500 µM. In addition, the IC50 with Trypanosoma cruzi was determined as 202 µM. Consider `Cl.N=C(N)N/N=C/c1cccc([N+](=O)[O-])c1O`, for which, in the assay on Trypanosoma cruzi, the IC50 was found to be 876 µM. For the same molecule, in the assay listed under Mus musculus [3], the Total lysis is >1400 µM. In the assay listed under Mus musculus [4], `Cl.N=C(N)N/N=C/c1ccccc1` gave a Total lysis of 400 µM. Take `CCOc1cccc(/C=N/NC(=N)N)c1O.Cl`: the IC50 in the assay with Trypanosoma cruzi stood at 97.8 µM. Moreover, in the assay listed under Mus musculus [1], the Total lysis turned out to be 150 µM.

`CCOc1ccccc1/C=N/NC(=N)N.Cl`: in the assay with Trypanosoma cruzi, the IC50 came to 34.7 µM. In the assay filed under Mus musculus [5], this molecule came in with a Total lysis of 75 µM.

Regarding `Cl.N=C(N)N/N=C/c1ccccc1N`, the Total lysis in the assay filed under Mus musculus [2] stood at 500 µM. The IC50 in the assay on Trypanosoma cruzi was found to be 261 µM. Consider `Cl.N=C(N)N/N=C/c1ccc(Cl)cc1`, for which, in the assay listed under Mus musculus [6], the Total lysis is 100 µM.

In the assay listed under Mus musculus [7], `Cl.N=C(N)N/N=C/c1cc2c(cc1Br)OCO2` had a Total lysis of 50 µM. `Cc1ccc(/C=N/NC(=N)N)cc1.Cl`: the Total lysis in the assay listed under Mus musculus [8] worked out at 250 µM. Also, the IC50 with Trypanosoma cruzi is 103 µM. Molecule `COc1cccc(/C=N/NC(=N)N)c1OC.Cl` showed a Total lysis in the assay filed under Mus musculus [5] of 75 µM. In the case of `COc1ccccc1/C=N/NC(=N)N.Cl`, the IC50 with Trypanosoma cruzi worked out at 86.3 µM. In the assay listed under Mus musculus [1], the Total lysis is 150 µM.

In the case of `Cl.N=C(N)N/N=C/c1ccc(C(=O)O)cc1`, in the assay with Trypanosoma cruzi, the IC50 is 573 µM. For the same molecule, the Total lysis in the assay listed under Mus musculus [9] came out at 1200 µM. On to `COc1cc(/C=N/NC(=N)N)ccc1O`, for which the IC50 in the assay with Trypanosoma cruzi is > 4800 µM. In the assay filed under Mus musculus [10], `Cl.N=C(N)N/N=C/c1ccc2c(c1)OCO2` had a Total lysis of 700 µM. As to `CN(C)c1ccc(C(=C2C=CC(=[N+](C)C)C=C2)c2ccc(N(C)C)cc2)cc1` [GENTIAN VIOLET], the IC50 in the assay on Trypanosoma cruzi stood at 536 µM.

Consider `Cl.N=C(N)N/N=C/c1cc2c(cc1[N+](=O)[O-])OCO2`, for which the Total lysis in the assay listed under Mus musculus [11] came out at 40 µM. The IC50 in the assay with Trypanosoma cruzi worked out at 17.1 µM. Turning to `Cl.N=C(N)N/N=C/c1ccccc1[N+](=O)[O-]`, the IC50 with Trypanosoma cruzi worked out at 87.5 µM. In addition, in the assay filed under Mus musculus [1], the Total lysis is 150 µM. Consider `Cl.N=C(N)N/N=C/c1cc2c(cc1N)OCO2`, for which the Total lysis in the assay listed under Mus musculus [2] was 500 µM. Further, the IC50 with Trypanosoma cruzi is 221 µM.

Turning to `COc1ccc(OC)c(/C=N/NC(=N)N)c1.Cl`, the IC50 with Trypanosoma cruzi was 41.4 µM. In the assay listed under Mus musculus [1], this molecule showed a Total lysis of 150 µM.

Take `COc1ccc(/C=N/NC(=N)N)c(OC)c1.Cl`: in the assay on Trypanosoma cruzi, the IC50 was 33.8 µM. The same molecule displayed a Total lysis in the assay listed under Mus musculus [6] of 100 µM. `Cl.N=C(N)N/N=C/c1cccc([N+](=O)[O-])c1`: the IC50 with Trypanosoma cruzi was found to be 183 µM. Besides, the Total lysis in the assay filed under Mus musculus [12] is 500 µM.

The molecule `Cl.N=C(N)N/N=C/c1ccccc1O` gave a Total lysis in the assay filed under Mus musculus [13] of 300 µM. Further, the IC50 in the assay with Trypanosoma cruzi is 166 µM.
